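A five-concentration, 48-hour dose response in 96-well plates underlies each endpoint, interpolated linearly between surrounding concentrations. GI50 = concentration required for 50% inhibition of growth. TGI marks complete inhibition of growth.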
Columns and labels:
Assay in all cases: DTP human tumour cell line panel, 48 h
SK-MEL-5 melanoma = system: SK-MEL-5 melanoma
MCF7 breast = system: MCF7 breast
UACC-257 melanoma = system: UACC-257 melanoma
T-47D breast = system: T-47D breast
LOX IMVI melanoma = system: LOX IMVI melanoma
HOP-92 NSCLC = system: HOP-92 NSCLC
SK-OV-3 ovarian = system: SK-OV-3 ovarian
ACHN renal = system: ACHN renal
SF-539 CNS = system: SF-539 CNS
NCI/ADR-RES ovarian = system: NCI/ADR-RES ovarian
HCT-15 colon = system: HCT-15 colon
KM12 colon = system: KM12 colon
HCT-116 colon = system: HCT-116 colon
SK-MEL-28 melanoma = system: SK-MEL-28 melanoma
OVCAR-5 ovarian = system: OVCAR-5 ovarian
A549 NSCLC = system: A549 NSCLC
HT29 colon = system: HT29 colon
NCI-H460 lung = system: NCI-H460 lung
786-0 renal = system: 786-0 renal
MALME-3M melanoma = system: MALME-3M melanoma
OVCAR-3 ovarian = system: OVCAR-3 ovarian
RXF 393 renal = system: RXF 393 renal
U251 CNS = system: U251 CNS
SF-268 CNS = system: SF-268 CNS
NCI-H522 lung = system: NCI-H522 lung
SNB-19 CNS = system: SNB-19 CNS
SF-295 CNS = system: SF-295 CNS
MDA-MB-435 = system: MDA-MB-435
UO-31 renal = system: UO-31 renal
OVCAR-8 ovarian = system: OVCAR-8 ovarian
A498 renal = system: A498 renal
TK-10 renal = system: TK-10 renal
NCI-H23 lung = system: NCI-H23 lung
PC-3 prostate = system: PC-3 prostate
IGROV1 ovarian = system: IGROV1 ovarian
SW-620 colon = system: SW-620 colon
HCC-2998 colon = system: HCC-2998 colon
DU-145 prostate = system: DU-145 prostate
SN12C renal = system: SN12C renal
M14 melanoma = system: M14 melanoma
UACC-62 melanoma = system: UACC-62 melanoma
HS 578T breast = system: HS 578T breast
CAKI-1 renal = system: CAKI-1 renal
RPMI-8226 leukemia = system: RPMI-8226 leukemia
SK-MEL-2 melanoma = system: SK-MEL-2 melanoma
MDA-MB-231 breast = system: MDA-MB-231 breast
HOP-62 NSCLC = system: HOP-62 NSCLC
COLO 205 colon = system: COLO 205 colon
SNB-75 CNS = system: SNB-75 CNS
NCI-H226 lung = system: NCI-H226 lung
BT-549 breast = system: BT-549 breast
OVCAR-4 ovarian = system: OVCAR-4 ovarian
EKVX NSCLC = system: EKVX NSCLC
K-562 leukemia = system: K-562 leukemia
HL-60(TB) leukemia = system: HL-60(TB) leukemia
MOLT-4 leukemia = system: MOLT-4 leukemia
CCRF-CEM leukemia = system: CCRF-CEM leukemia
SR leukemia = system: SR leukemia
MDA-N = system: MDA-N

CN(C)c1ccc(N=C2C=CC(=[N+](C)C)C=C2)cc1
GI50 (SK-MEL-5 melanoma): 3.26 µM
TGI (SK-MEL-5 melanoma): 11.8 µM
GI50 (MCF7 breast): 4.03 µM
TGI (MCF7 breast): 17.6 µM
GI50 (UACC-257 melanoma): 7.12 µM
TGI (UACC-257 melanoma): 24.8 µM
GI50 (T-47D breast): 4.37 µM
TGI (T-47D breast): 21.2 µM
GI50 (LOX IMVI melanoma): 3.86 µM
TGI (LOX IMVI melanoma): 22.1 µM
GI50 (HOP-92 NSCLC): 5.17 µM
TGI (HOP-92 NSCLC): 74.4 µM
GI50 (SK-OV-3 ovarian): 15.5 µM
TGI (SK-OV-3 ovarian): 78.6 µM
GI50 (ACHN renal): 12.2 µM
TGI (ACHN renal): 37.5 µM
GI50 (SF-539 CNS): 11.7 µM
TGI (SF-539 CNS): 45.8 µM
GI50 (NCI/ADR-RES ovarian): 19.1 µM
TGI (NCI/ADR-RES ovarian): > 100 µM
GI50 (HCT-15 colon): 23.5 µM
TGI (HCT-15 colon): > 100 µM
GI50 (KM12 colon): 3.91 µM
TGI (KM12 colon): 15 µM
GI50 (HCT-116 colon): 4.04 µM
TGI (HCT-116 colon): 17.8 µM
GI50 (SK-MEL-28 melanoma): 14.2 µM
TGI (SK-MEL-28 melanoma): > 100 µM
GI50 (OVCAR-5 ovarian): 20.4 µM
TGI (OVCAR-5 ovarian): 76.6 µM
GI50 (A549 NSCLC): 5.21 µM
TGI (A549 NSCLC): > 100 µM
GI50 (HT29 colon): 3.74 µM
TGI (HT29 colon): 22.9 µM
GI50 (NCI-H460 lung): 5.36 µM
TGI (NCI-H460 lung): 43.7 µM
GI50 (786-0 renal): 30 µM
TGI (786-0 renal): > 100 µM
GI50 (MALME-3M melanoma): 8.97 µM
TGI (MALME-3M melanoma): 38.6 µM
GI50 (OVCAR-3 ovarian): 4.99 µM
TGI (OVCAR-3 ovarian): 17.7 µM
GI50 (RXF 393 renal): 23.4 µM
TGI (RXF 393 renal): > 100 µM
GI50 (U251 CNS): 3.65 µM
TGI (U251 CNS): 15.4 µM
GI50 (SF-268 CNS): 11 µM
TGI (SF-268 CNS): 68.1 µM
GI50 (NCI-H522 lung): 1.79 µM
TGI (NCI-H522 lung): 4.95 µM
GI50 (SNB-19 CNS): 6.45 µM
TGI (SNB-19 CNS): > 100 µM
GI50 (SF-295 CNS): 4.62 µM
TGI (SF-295 CNS): 22.1 µM
GI50 (MDA-MB-435): 6.34 µM
TGI (MDA-MB-435): 29.2 µM
GI50 (UO-31 renal): 11.3 µM
TGI (UO-31 renal): 47.6 µM
GI50 (OVCAR-8 ovarian): 4.51 µM
TGI (OVCAR-8 ovarian): > 100 µM
GI50 (A498 renal): 2.7 µM
TGI (A498 renal): > 100 µM
GI50 (TK-10 renal): 9.24 µM
TGI (TK-10 renal): 53.4 µM
GI50 (NCI-H23 lung): 3.52 µM
TGI (NCI-H23 lung): 29.4 µM
GI50 (PC-3 prostate): 4.89 µM
TGI (PC-3 prostate): 22.7 µM
GI50 (IGROV1 ovarian): 5.35 µM
TGI (IGROV1 ovarian): 37.8 µM
GI50 (SW-620 colon): 6.6 µM
TGI (SW-620 colon): 26.2 µM
GI50 (HCC-2998 colon): 9.03 µM
TGI (HCC-2998 colon): 65.8 µM
GI50 (DU-145 prostate): 22.3 µM
TGI (DU-145 prostate): > 100 µM
GI50 (SN12C renal): 13.7 µM
TGI (SN12C renal): > 100 µM
GI50 (M14 melanoma): 17.7 µM
TGI (M14 melanoma): 81.4 µM
GI50 (UACC-62 melanoma): 5.25 µM
TGI (UACC-62 melanoma): 34.6 µM
GI50 (HS 578T breast): 3.28 µM
TGI (HS 578T breast): 29.1 µM
GI50 (CAKI-1 renal): 12.1 µM
TGI (CAKI-1 renal): 41.8 µM
GI50 (RPMI-8226 leukemia): 3.2 µM
TGI (RPMI-8226 leukemia): 11.4 µM
GI50 (SK-MEL-2 melanoma): 3.05 µM
TGI (SK-MEL-2 melanoma): 13 µM
GI50 (MDA-MB-231 breast): 6.41 µM
TGI (MDA-MB-231 breast): > 100 µM
GI50 (HOP-62 NSCLC): 4.21 µM
TGI (HOP-62 NSCLC): > 100 µM
GI50 (COLO 205 colon): 4.2 µM
TGI (COLO 205 colon): 16.2 µM
GI50 (SNB-75 CNS): 5.86 µM
TGI (SNB-75 CNS): 21.2 µM
GI50 (NCI-H226 lung): 17 µM
TGI (NCI-H226 lung): > 100 µM
GI50 (BT-549 breast): 4.15 µM
TGI (BT-549 breast): 58.4 µM
GI50 (OVCAR-4 ovarian): 7.52 µM
TGI (OVCAR-4 ovarian): 21.8 µM
GI50 (EKVX NSCLC): 3.58 µM
TGI (EKVX NSCLC): 40.7 µM

C[n+]1c(-c2ccc(/C=N/NC(=O)C(=O)N/N=C/c3ccc(-c4cn5ccsc5[n+]4C)cc3)cc2)cn2ccsc21
TGI (SK-MEL-5 melanoma): > 100 µM
TGI (MCF7 breast): > 100 µM
TGI (UACC-257 melanoma): > 100 µM
TGI (T-47D breast): > 100 µM
TGI (SK-OV-3 ovarian): > 100 µM
TGI (ACHN renal): > 100 µM
TGI (SF-539 CNS): > 100 µM
TGI (NCI/ADR-RES ovarian): > 100 µM
TGI (HCT-15 colon): > 100 µM
TGI (KM12 colon): > 100 µM
TGI (HCT-116 colon): > 100 µM
TGI (SK-MEL-28 melanoma): > 100 µM
TGI (OVCAR-5 ovarian): > 100 µM
TGI (A549 NSCLC): > 100 µM
TGI (HT29 colon): > 100 µM
TGI (NCI-H460 lung): > 100 µM
TGI (K-562 leukemia): > 100 µM
TGI (786-0 renal): > 100 µM
TGI (HL-60(TB) leukemia): > 100 µM
TGI (U251 CNS): > 100 µM
TGI (SF-268 CNS): > 100 µM
TGI (NCI-H522 lung): > 100 µM
TGI (SNB-19 CNS): > 100 µM
TGI (SF-295 CNS): > 100 µM
TGI (MDA-MB-435): > 100 µM
TGI (UO-31 renal): > 100 µM
TGI (OVCAR-8 ovarian): > 100 µM
TGI (TK-10 renal): > 100 µM
TGI (MOLT-4 leukemia): > 100 µM
TGI (PC-3 prostate): > 100 µM
TGI (IGROV1 ovarian): > 100 µM
TGI (CCRF-CEM leukemia): > 100 µM
TGI (SW-620 colon): > 100 µM
TGI (SR leukemia): > 100 µM
TGI (HCC-2998 colon): > 100 µM
TGI (SN12C renal): > 100 µM
TGI (M14 melanoma): > 100 µM
TGI (HS 578T breast): > 100 µM
TGI (RPMI-8226 leukemia): > 100 µM
TGI (MDA-MB-231 breast): > 100 µM
TGI (HOP-62 NSCLC): > 100 µM
TGI (COLO 205 colon): > 100 µM
TGI (SNB-75 CNS): > 100 µM
TGI (MDA-N): > 100 µM
TGI (OVCAR-4 ovarian): > 100 µM
TGI (EKVX NSCLC): > 100 µM
